Experimental data: patent publication US20050192279A1, “Pyridazinones as antagonists of alpha4 integrins” (priority 2004, published 2005)

Legend:
α4β1 = molecular target: T1, α4β1 (Homo sapiens, UniProt P05556+P13612); assay: Ramos Cell Adhesion Assay (α4β1 Mediated Adhesion/VCAM-1); assay type: cell-based; settings: Ramos cell adhesion to hVCAM-1; read-out: α4β1 IC50
T1 construct: Ramos Cell Adhesion Assay (α4β1 Mediated Adhesion/VCAM-1); endogenous in cells; host or cells: Ramos cells
Method: Ramos Cell Adhesion Assay (α4β1 Mediated Adhesion/VCAM-1)
Immulon 96 well plates (Dynex) were coated with 100 μL recombinant hVCAM-1 at 4.0 μg/mL in 0.05 M NaCO3 buffer pH 9.0 overnight at 4° C. (R&D Systems). Plates were washed 2 times in PBS with 1% BSA and blocked for 1 h @ room temperature in this buffer. PBS was removed and compounds to be tested (50 μL) were added at 2× concentration. Ramos cells, (50 μL at 2×10^6/mL) labeled with 5 μM Calcein AM (Molecular Probes) for 1 h at 37° C., were added to each well and allowed to adhere for 1 h at room temperature. Plates were washed 4× in PBS+1% BSA and cells were lysed for 15 minutes in 100 μL of 1 M Tris pH 8.0 with 1% SDS.

human α4β7 integrin = molecular target: T2, human α4β7 integrin (Homo sapiens, UniProt P13612+P26010); assay: α4β7-K562 Cell Adhesion Assay (α4β7 Mediated Adhesion/MAdCAM-1); assay type: cell-based; settings: α4β7-K562 cell adhesion to hMAdCAM-1; read-out: α4β7 IC50
T2 construct: expressed in transfected cells; host or cells: K562 cells, stably transfected
T2 sequence (P13612 34-1032): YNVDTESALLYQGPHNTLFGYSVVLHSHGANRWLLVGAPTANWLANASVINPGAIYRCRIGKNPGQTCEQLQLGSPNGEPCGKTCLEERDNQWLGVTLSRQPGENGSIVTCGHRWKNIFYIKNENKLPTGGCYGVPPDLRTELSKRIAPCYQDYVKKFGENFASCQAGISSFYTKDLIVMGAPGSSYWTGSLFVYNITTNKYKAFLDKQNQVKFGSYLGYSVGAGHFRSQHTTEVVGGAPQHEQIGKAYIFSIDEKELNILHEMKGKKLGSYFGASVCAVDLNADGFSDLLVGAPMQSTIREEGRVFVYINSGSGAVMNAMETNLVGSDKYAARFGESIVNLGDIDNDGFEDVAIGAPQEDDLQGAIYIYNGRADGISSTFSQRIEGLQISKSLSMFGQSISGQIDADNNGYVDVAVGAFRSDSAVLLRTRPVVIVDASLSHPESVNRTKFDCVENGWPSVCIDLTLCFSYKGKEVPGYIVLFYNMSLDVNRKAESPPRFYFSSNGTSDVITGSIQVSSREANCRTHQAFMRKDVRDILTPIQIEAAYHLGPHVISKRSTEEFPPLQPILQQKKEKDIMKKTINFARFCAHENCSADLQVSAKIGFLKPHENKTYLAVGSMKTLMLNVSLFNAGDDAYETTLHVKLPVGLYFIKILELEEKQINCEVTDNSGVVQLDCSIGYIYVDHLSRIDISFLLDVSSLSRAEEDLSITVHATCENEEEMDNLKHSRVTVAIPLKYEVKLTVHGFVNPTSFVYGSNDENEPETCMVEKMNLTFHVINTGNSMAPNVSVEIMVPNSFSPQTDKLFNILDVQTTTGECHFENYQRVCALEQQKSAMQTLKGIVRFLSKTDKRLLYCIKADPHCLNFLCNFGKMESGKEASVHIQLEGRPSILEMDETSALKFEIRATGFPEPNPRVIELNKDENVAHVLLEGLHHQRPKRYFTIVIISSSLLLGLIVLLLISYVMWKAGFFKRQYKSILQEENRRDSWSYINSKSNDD
T2 sequence (P26010 20-798): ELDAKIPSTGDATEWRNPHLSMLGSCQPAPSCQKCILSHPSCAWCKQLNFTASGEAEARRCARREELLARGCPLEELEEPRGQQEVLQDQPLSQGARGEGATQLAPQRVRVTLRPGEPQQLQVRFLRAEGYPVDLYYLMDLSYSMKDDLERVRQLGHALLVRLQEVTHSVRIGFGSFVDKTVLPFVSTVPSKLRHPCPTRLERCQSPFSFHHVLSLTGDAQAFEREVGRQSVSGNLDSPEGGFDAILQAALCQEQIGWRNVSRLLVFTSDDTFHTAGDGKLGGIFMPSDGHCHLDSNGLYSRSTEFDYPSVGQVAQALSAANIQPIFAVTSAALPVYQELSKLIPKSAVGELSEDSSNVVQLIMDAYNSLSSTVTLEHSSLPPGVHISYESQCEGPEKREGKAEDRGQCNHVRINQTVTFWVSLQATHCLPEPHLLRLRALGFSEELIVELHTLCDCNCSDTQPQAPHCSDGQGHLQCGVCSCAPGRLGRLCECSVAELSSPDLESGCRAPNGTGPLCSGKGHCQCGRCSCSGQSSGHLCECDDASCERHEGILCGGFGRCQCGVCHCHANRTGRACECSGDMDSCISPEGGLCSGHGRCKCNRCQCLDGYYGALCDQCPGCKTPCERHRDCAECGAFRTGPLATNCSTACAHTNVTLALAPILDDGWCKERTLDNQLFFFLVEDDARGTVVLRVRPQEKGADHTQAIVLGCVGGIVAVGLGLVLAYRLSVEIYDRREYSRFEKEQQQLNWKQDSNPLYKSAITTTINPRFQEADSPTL
Method: α4β7-K562 Cell Adhesion Assay (α4β7 Mediated Adhesion/MAdCAM-1)
M2 anti-FLAG Antibody Coated 96-well plates (Sigma) were coated for 1 hour at 4° C. with 2-8 μl/well recombinant FLAG-hMAdCAM-1 contained in 100 μL of Dulbecco's PBS, pH 7.4, with 1% BSA and 1 mM Mn ^+2 (PBS-BSA-Mn). Plates were washed once with PBS-BSA-Mn. Buffer was removed and compounds to be tested (50 μL) were added at 2× concentration. Stably transfected K562 cells expressing human α4β7 integrin, (50 μL at 2×10^6/mL) that had been labeled with 100 μg/ml carboxymethyl fluorescein diacetate succinimidyl ester (CFDA-SE; Molecular Probes) for 15 min at 37° C. were added to each well and allowed to adhere for 1 h at room temperature. Plates were washed 4× in PBS-BSA-Mn and then cells were lysed for 2 minutes by addtion of 100 μL of PBS without Ca, Mg supplemented with 0.1 M NaOH.

T1 sequence (P05556 21-798, one chain of several): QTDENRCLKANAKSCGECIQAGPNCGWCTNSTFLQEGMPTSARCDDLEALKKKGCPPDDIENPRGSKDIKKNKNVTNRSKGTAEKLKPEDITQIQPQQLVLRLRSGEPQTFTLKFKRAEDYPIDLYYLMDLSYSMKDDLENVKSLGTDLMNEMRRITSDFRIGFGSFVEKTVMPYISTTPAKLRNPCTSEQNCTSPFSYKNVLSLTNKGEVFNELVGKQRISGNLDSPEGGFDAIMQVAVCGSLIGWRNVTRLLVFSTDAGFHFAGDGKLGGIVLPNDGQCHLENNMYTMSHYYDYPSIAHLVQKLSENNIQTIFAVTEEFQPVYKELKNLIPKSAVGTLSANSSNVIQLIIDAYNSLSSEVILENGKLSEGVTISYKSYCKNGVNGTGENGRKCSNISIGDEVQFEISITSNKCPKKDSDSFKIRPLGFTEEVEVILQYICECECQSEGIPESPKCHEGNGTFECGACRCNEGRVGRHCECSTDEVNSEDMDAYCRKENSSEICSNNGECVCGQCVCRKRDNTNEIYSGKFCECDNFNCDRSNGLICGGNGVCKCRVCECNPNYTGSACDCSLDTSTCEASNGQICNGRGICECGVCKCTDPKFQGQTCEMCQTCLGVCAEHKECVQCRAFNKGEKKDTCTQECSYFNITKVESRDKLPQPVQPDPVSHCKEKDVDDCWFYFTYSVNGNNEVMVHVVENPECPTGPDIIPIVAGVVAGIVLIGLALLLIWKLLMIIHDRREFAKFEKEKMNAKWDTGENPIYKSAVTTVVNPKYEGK

Compound | IC50 (α4β1) [nM] | IC50 (human α4β7 integrin) [nM]
CC(C)Oc1cnn(CCO)c(=O)c1-c1ccc(C[C@H](NC(=O)c2c(Cl)cccc2Cl)C(=O)O)cc1 [Cpd 24] | 249 | 4
COc1cnn(C)c(=O)c1-c1ccc(C[C@H](NC(=O)C23CCC(CC2)CN3C(=O)CCC2CCNCC2)C(=O)O)cc1 [Cpd 139] | 319 | 228
CN1CCC(Oc2cnn(C)c(=O)c2-c2ccc(C[C@H](NC(=O)c3c(Cl)cccc3Cl)C(=O)O)cc2)C1 (some centres unmarked) [Cpd 12] | 305 | 2
CN[C@H](C(=O)N[C@@H](Cc1ccc(-c2c(OC)cnn(C)c2=O)cc1)C(=O)O)[C@@H](C)OCc1ccccc1 [Cpd 68] | 473 | 24
COc1cnn(C)c(=O)c1-c1ccc(C[C@H](NC(=O)OCc2ccccc2)C(=O)O)cc1 [Cpd 172, (S)-2-Benzyloxycarbonylamino-3-[4-(5-methoxy-2-methyl-3-oxo-2,3-dihydro-pyridazin-4-yl)-phenyl]-propionic acid] | > 5000 | 570
CN[C@H](C(=O)N[C@@H](Cc1ccc(-c2c(OC)cnn(CCN3CCOCC3)c2=O)cc1)C(=O)O)[C@@H](C)OCc1ccccc1 [Cpd 128] | 1490 | 138
CN(C)CCOc1cnn(C)c(=O)c1-c1ccc(C[C@H](NC(=O)c2c(Cl)cccc2Cl)C(=O)O)cc1 [Cpd 150] | 154 | 271
CC(C)COC(=O)N[C@@H](Cc1ccc(-c2c(OCC(C)C)cnn(C)c2=O)cc1)C(=O)O [Cpd 111] | > 5000 | 82
COc1cnn(C)c(=O)c1-c1ccc(C[C@H](NC(=O)C2(n3c(C)ccc3C)CC2)C(=O)O)cc1 [Cpd 80] | > 5000 | 228
COc1cnn(C)c(=O)c1-c1ccc(C[C@H](NC(=O)[C@@H]2C3CCC(CC3)N2C(=O)CCC(C)C)C(=O)O)cc1 [Cpd 100] | 272 | 60
COc1cnn(C)c(=O)c1-c1ccc(CC(NC(=O)C(C(C)C)n2c(C)cc(C(=O)c3ccccc3)c2C)C(=O)O)cc1 (centres unmarked) [Cpd 211, 2-[2-(3-Benzoyl-2,5-dimethyl-pyrrol-1-yl)-3-methyl-butyrylamino]-[4-(5-methoxy-2-methyl-3-oxo-2,3-dihydro-pyridazin-4-yl)-phenyl]-propionic acid] | > 5000 | 529
COc1cnn(C)c(=O)c1-c1ccc(C[C@H](NC(=O)C(C)(C)NC(C)C)C(=O)O)cc1 [Cpd 218] | > 5000 | 239
COc1cnn(C)c(=O)c1-c1ccc(C[C@H](NC(=O)CCC(C)(C)C)C(=O)O)cc1 [Cpd 206] | 3300 | 2550
COc1cnn(C)c(=O)c1-c1ccc(C[C@H](NC(=O)[C@H](NC(=O)OC(C)(C)C)C(C)C)C(=O)O)cc1 [Cpd 81, (R)-2-(2-tert-Butoxycarbonylamino-3-methyl-butyrylamino)-3-(S)-[4-(5-methoxy-2-methyl-3-oxo-2,3-dihydro-pyridazin-4-yl)-phenyl]-propionic acid] | 987 | 39
CC(C)Oc1cnn(C)c(=O)c1-c1ccc(C[C@H](NC(=O)c2c(Cl)cccc2Cl)C(=O)O)cc1 [Cpd 74] | 135 | 27
COc1cnn(C)c(=O)c1-c1ccc(C[C@H](NC(=O)C(c2ccccc2)C(C)C)C(=O)O)cc1 (mixture of isomers) [Cpd 57] | 1220 | 18

Compound | IC50 (α4β1) [nM] | IC50 (human α4β7 integrin) [nM]
COc1cnn(C)c(=O)c1-c1ccc(C[C@H](NC(=O)C(=O)C(C)C)C(=O)O)cc1 [Cpd 143] | > 1000 | 244
COc1cnn(C)c(=O)c1-c1ccc(C[C@H](NC(=O)c2c(Cl)cccc2Cl)C(=O)OCCN2CCOCC2)cc1 [Cpd 118] | 1290 | 103
COc1cnn(C)c(=O)c1-c1ccc(C[C@H](NC(=O)OC23CC4CC(CC(C4)C2)C3)C(=O)O)cc1 [Cpd 180] | > 5000 | 731
COc1cnn(C)c(=O)c1-c1ccc(C[C@H](NC(=O)C(C)(C)NC2CCC3(CC2)OCCO3)C(=O)O)cc1 [Cpd 220] | > 5000 | 263
CNC(C)(C)C(=O)N[C@@H](Cc1ccc(-c2c(OC)cnn(C)c2=O)cc1)C(=O)O [Cpd 221] | > 5000 | 380
COc1cnn(C)c(=O)c1-c1ccc(CC(NC(=O)C(C(C)C)n2c(C)ccc2C)C(=O)O)cc1 (centres unmarked) [Cpd 215] | > 5000 | 305
COc1cnn(C)c(=O)c1-c1ccc(C[C@H](NC(=O)C2(NC3CCCCC3)CC2)C(=O)O)cc1 [Cpd 40] | > 5000 | 38
COC(=O)[C@H](Cc1ccc(-c2c(OC)cnn(C)c2=O)cc1)NC(=O)[C@@H]1C2CCC(CC2)N1C(=O)CCc1ccccc1 [Cpd 182] | > 1000 | 785
COc1cnn(C)c(=O)c1-c1ccc(C[C@H](NC(=O)c2c(C)cc(C)nc2N)C(=O)O)cc1 [Cpd 138] | 508 | 204
CCn1ncc(N2CCOCC2)c(-c2ccc(C[C@H](NC(=O)c3c(Cl)cccc3Cl)C(=O)O)cc2)c1=O [Cpd 29] | > 1000 | 6
COc1cnn(C)c(=O)c1-c1ccc(C[C@H](NC(=O)C2(NC(=O)OC(C)(C)C)CCCC2)C(=O)O)cc1 [Cpd 223] | > 5000 | 115
Cn1ncc(OCCN2CCOCC2)c(-c2ccc(C[C@H](NC(=O)c3c(Cl)cccc3Cl)C(=O)O)cc2)c1=O [Cpd 21] | 65 | 3
CCOc1cnn(C(C)(C)C)c(=O)c1-c1ccc(C[C@H](NC(=O)c2c(Cl)cccc2Cl)C(=O)O)cc1 [Cpd 142] | > 1000 | 230
COc1cnn(C)c(=O)c1-c1ccc(C[C@H](NC(=O)C(C(C)C)n2c(C)ccc2C)C(=O)O)cc1 (mixture of isomers) [Cpd 33, 2-[2(2,5-Dimethyl-pyrrol-1-yl)-3-methyl-butyrylamino]-3-[4-(5-methoxy-2-methyl-3-oxo-2,3-dihydro-pyridazin-4-yl)-phenyl]-propionic acid] | 2400 | 7
Cn1ncc(OC2CCCC2)c(-c2ccc(C[C@H](NC(=O)c3c(Cl)cccc3Cl)C(=O)O)cc2)c1=O [Cpd 60] | 155 | 20
